Experimental data published in patent publication US20240109865A1, “INDAZOLE COMPOUNDS AS KINASE INHIBITORS” (TYRA BIOSCIENCES, INC., priority 2020, published 2024).

Columns and labels:
FGFR2 = FGFR2 (Homo sapiens (Human), UniProt P21802); assay: Kinase assay, binding constants (Kd), kinase-tagged T7 phage, qPCR
Procedure, shortened: (§1)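 Competition binding: T7 phage-tagged kinase + biotin-ligand beads + compound (11 pts, 3-fold, 0.9% DMSO). Elution 30 min RT with free ligand; qPCR quantitation. Kd via Hill fit, slope −1.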

FGFR4 = FGFR4 (Homo sapiens (Human), UniProt P22455); assay: as above
Procedure, shortened: as §1

FGFR3 (V555M) = FGFR3 (V555M) (Homo sapiens (Human), UniProt P22607, V555M); assay: as above; conditions: V555M mutant
Procedure, shortened: as §1

FGFR1 = FGFR1 (Homo sapiens (Human), UniProt P11362); assay: as above
Procedure, shortened: as §1

FGFR3 = FGFR3 (Homo sapiens (Human), UniProt P22607); assay: as above
Procedure, shortened: as §1

[1] = target: FGFR3-BAIAP2L1 Ba/F3 cells (Homo sapiens, UniProt P22607); assay: Ba/F3 cell viability assay (CellTiter-Glo 2.0), FGFR3-BAIAP2L1 Ba/F3; type: cell-based; conditions: for Ba/F3 FGFR1/FGFR3 Selectivity: FGFR3 > FGFR1 selectivity ratio in Ba/F3 FGFR fusion cell based assays; for IC50: read-out: Ba/F3 Cells FGFR3 (IC50 nM), FGFR3-BAIAP2L1 Ba/F3 cells, 48 hours, Cell Titer Glo 2.0
Description: (§2) Experimental Purpose: Recombinant kinase fusions are transduced into parental Ba/F3, which becomes dependent upon this constitutive kinase activity for IL3-independent survival. Inhibition of kinase activity leads to cell death, which is monitored using CellTiter-Glo® 2.0 (Promega) which measures intracellular ATP concentration that in turn serves as a marker for viability. FGFR1-BCR Ba/F3 and FGFR3-BAIAP2L1 Ba/F3 were obtained from Advanced Cellular Dynamics (Seattle, WA)
(§3) Cell Viability Assay Procedure: Cell Titer-Glo® 2.0 Luminescent cell viability assay reagent was purchased from Promega (Madison, WI). FGFR1-BCR Ba/F3 and FGFR3-BAIAP2L1 Ba/F3 cells were cultured in RPMI1640 media supplemented with 10% fetal bovine serum. Cultures were maintained at 37° C. in a humidified atmosphere of 5% C02 and 95% air.
(§4) Cells were plated in 96-well clear bottom/white plates (Corning #3903) at 10,000 cells/well in 100 μl of media, incubated overnight. The next day, test compound DMSO stock solutions were made at 10 mM and 2 μM final concentration. Compounds were then added to cells in a 9-dose, 10-fold dilution series starting at 30 μM with an HP 300e Digital Dispenser (each dose was applied in triplicate). DMSO was backfilled to each well up to 301 nL total volume of test compound+DMSO, and a total of 301 nL DMSO was added to a control/no test compound well in triplicate. The cells in cell culture plates were incubated with the compounds at 37° C. and 5% C02 for 48 hours. Then 50 μl of Cell Titer Glo 2.0 reagent was added to each well of the cell culture plates. The contents were covered from light and mixed on an orbital shaker at room temperature for 10 min. Luminescence was recorded by a Synergy H1 Microplate Reader (Biotek, Winooski, VT). Cells were assessed as a percentage of DMSO only treated control cells. Curves were plotted and IC50 values were calculated using the GraphPad Prism 8 program based on a sigmoidal dose-response equation (4 parameter).

FGFR1-BCR Ba/F3 cells = FGFR1-BCR Ba/F3 cells (Homo sapiens, UniProt P11362); assay: Ba/F3 cell viability assay (CellTiter-Glo 2.0), FGFR1-BCR Ba/F3; type: cell-based; conditions: read-out: Ba/F3 Cells FGFR1 (IC50 nM), 48 hours, Cell Titer Glo 2.0
Description: as §2, §3, §4

FGFR1-BCR Ba/F3 cells, sequence (P11362 22-822 limits assumed, change not shown): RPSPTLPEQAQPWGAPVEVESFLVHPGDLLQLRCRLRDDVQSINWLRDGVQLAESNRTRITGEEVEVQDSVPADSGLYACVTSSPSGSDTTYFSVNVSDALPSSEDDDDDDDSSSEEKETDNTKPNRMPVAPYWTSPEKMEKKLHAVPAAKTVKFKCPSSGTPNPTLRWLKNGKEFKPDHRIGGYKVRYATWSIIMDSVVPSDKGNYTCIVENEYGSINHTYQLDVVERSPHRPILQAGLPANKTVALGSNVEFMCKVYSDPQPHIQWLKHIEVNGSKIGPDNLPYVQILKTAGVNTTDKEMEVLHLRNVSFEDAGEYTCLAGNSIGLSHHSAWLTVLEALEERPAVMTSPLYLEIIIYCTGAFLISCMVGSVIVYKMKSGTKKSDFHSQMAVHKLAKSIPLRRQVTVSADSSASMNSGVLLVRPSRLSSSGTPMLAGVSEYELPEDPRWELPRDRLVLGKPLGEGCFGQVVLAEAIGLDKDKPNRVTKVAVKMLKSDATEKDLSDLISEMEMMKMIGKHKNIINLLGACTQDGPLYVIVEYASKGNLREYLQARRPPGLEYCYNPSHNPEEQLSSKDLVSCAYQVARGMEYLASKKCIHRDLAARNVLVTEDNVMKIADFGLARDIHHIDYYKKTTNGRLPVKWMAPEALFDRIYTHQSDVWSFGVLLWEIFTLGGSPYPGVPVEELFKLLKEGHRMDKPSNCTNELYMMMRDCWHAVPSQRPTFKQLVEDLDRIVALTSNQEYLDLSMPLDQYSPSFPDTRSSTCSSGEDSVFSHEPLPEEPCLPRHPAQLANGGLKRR
FGFR1, sequence (P11362 22-822): as the sequence (P11362 22-822 limits assumed, change not shown) above
FGFR3, sequence (P22607 23-806): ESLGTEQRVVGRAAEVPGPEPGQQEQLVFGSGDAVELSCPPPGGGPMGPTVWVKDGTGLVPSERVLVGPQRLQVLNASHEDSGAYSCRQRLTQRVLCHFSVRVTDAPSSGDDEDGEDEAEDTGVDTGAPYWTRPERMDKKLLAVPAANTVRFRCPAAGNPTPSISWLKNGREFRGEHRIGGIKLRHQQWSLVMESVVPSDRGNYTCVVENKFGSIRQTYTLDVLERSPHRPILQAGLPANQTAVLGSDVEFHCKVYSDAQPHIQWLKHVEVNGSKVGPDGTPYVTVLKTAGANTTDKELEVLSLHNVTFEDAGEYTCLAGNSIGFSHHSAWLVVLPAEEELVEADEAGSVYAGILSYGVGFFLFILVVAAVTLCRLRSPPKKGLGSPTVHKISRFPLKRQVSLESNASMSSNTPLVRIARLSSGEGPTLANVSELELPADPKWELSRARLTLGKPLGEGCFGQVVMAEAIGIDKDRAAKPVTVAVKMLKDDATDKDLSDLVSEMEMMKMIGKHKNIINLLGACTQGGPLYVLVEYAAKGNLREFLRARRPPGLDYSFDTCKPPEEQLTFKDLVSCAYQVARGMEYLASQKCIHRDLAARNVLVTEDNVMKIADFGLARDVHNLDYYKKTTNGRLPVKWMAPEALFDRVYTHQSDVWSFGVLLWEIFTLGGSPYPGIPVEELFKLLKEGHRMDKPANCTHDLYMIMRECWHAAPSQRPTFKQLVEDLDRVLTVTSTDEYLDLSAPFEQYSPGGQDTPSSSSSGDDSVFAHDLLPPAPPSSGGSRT
FGFR3-BAIAP2L1 Ba/F3 cells, sequence (P22607 23-806 limits assumed, change not shown): as the sequence (P22607 23-806) above
FGFR2, sequence (P21802 22-821): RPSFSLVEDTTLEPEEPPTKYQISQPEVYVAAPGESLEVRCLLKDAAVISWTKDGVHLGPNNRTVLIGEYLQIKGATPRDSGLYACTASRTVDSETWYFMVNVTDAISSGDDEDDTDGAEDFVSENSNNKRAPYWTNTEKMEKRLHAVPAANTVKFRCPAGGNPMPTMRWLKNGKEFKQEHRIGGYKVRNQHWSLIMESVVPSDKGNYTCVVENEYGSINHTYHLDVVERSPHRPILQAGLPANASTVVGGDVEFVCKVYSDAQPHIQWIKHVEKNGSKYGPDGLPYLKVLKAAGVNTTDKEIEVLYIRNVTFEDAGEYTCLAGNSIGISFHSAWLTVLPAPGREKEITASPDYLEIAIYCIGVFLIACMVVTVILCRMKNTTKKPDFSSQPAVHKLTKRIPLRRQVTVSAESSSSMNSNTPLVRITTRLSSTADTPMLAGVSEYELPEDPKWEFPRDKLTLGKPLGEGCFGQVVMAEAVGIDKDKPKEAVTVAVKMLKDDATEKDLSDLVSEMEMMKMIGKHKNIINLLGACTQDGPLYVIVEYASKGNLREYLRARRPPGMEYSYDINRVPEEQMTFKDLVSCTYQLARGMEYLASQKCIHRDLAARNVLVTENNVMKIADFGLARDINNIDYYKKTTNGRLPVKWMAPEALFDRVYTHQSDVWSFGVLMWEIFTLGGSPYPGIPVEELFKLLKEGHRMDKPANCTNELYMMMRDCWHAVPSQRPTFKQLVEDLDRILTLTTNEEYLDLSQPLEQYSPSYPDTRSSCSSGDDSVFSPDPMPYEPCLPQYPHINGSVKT
FGFR4, sequence (P22455 22-802): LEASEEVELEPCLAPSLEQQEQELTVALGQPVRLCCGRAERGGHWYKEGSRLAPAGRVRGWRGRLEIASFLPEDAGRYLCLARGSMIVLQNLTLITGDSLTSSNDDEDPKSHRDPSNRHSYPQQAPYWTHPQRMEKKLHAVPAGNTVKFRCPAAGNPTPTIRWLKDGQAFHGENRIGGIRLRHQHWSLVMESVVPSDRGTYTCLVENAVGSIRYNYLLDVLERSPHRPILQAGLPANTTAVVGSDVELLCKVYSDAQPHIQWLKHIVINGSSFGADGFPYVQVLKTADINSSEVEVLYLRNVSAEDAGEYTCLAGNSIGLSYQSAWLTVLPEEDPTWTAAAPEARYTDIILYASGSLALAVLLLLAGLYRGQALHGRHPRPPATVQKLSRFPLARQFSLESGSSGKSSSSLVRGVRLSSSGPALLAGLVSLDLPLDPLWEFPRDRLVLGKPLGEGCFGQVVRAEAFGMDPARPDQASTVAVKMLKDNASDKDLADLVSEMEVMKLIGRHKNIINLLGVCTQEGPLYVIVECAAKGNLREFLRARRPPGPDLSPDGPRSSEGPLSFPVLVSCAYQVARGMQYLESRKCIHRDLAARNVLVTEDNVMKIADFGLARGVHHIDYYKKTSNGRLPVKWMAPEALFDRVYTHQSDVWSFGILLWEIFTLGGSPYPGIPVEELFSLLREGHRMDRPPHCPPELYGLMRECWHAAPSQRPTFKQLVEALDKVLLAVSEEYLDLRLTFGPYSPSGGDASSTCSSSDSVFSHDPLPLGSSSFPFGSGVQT
FGFR3 (V555M), sequence (P22607 23-806 V555M): as the sequence (P22607 23-806) above, with V533M counted along it

Compound	Kd (FGFR2) [nM]	Kd (FGFR4) [nM]	Kd (FGFR3 (V555M)) [nM]	Kd (FGFR1) [nM]	Kd (FGFR3) [nM]	Ba/F3 FGFR1/FGFR3 Selectivity [1]	IC50 [1] [nM]	IC50 (FGFR1-BCR Ba/F3 cells) [nM]
C[C@@H](Oc1ccc2[nH]nc(-c3ccc(N4CCNCC4=O)nc3)c2c1)c1c(Cl)cncc1Cl [Example 37, 1-[5-[5-[(1R)-1-(3,5-dichloro-4-pyridyl)ethoxy]-1H-indazol-3-yl]-2-pyridyl]piperazin-2-one]	20 to 100	1 to 20	1 to 20	20 to 100	1 to 20	12	1 to 20	100 to 300
C[C@@H](Oc1ccc2[nH]nc(-c3ccc(N4CCN(C)CC4=O)nc3)c2c1)c1c(Cl)cncc1Cl [Example 38, 1-[5-[5-[(1R)-1-(3,5-dichloro-4-pyridyl)ethoxy]-1H-indazol-3-yl]-2-pyridyl]-4-methyl-piperazin-2-one]	20 to 100	1 to 20	1 to 20	20 to 100	1 to 20	21	1 to 20	100 to 300
C[C@@H](Oc1ccc2[nH]nc(-c3ccc(N4CCN(S(C)(=O)=O)CC4=O)nc3)c2c1)c1c(Cl)cncc1Cl [Example 39, 1-[5-[5-[(1R)-1-(3,5-dichloro-4-pyridyl)ethoxy]-1H-indazol-3-yl]-2-pyridyl]-4-methylsulfonyl-piperazin-2-one]	20 to 100	1 to 20	1 to 20	20 to 100	1 to 20	16	1 to 20	100 to 300
C[C@@H](Oc1ccc2[nH]nc(-c3ccc(N4CCC5(CCC(=O)N5C)CC4)nc3)c2c1)c1c(Cl)cncc1Cl [Example 40, 8-[5-[5-[(1R)-1-(3,5-dichloro-4-pyridyl)ethoxy]-1H-indazol-3-yl]-2-pyridyl]-1-methyl-1,8-diazaspiro[4.5]decan-2-one]	1 to 20	1 to 20	1 to 20	1 to 20	1 to 20	30	1 to 20	20 to 100
C[C@@H](Oc1ccc2[nH]nc(-c3cnc(N4CCC5(CCC(=O)N5C)CC4)c(F)c3)c2c1)c1c(Cl)cncc1Cl [Example 43, 8-[5-[5-[(1R)-1-(3,5-dichloro-4-pyridyl)ethoxy]-1H-indazol-3-yl]-3-fluoro-2-pyridyl]-1-methyl-1,8-diazaspiro[4.5]decan-2-one]	1 to 20	1 to 20	1 to 20	1 to 20	1 to 20	10	1 to 20	20 to 100
C[C@@H](Oc1ccc2[nH]nc(-c3cnc(N4CCC5(CC4)C(=O)NCCN5C)c(F)c3)c2c1)c1c(Cl)cncc1Cl [Example 44, 9-[5-[5-[(1R)-1-(3,5-dichloro-4-pyridyl)ethoxy]-1H-indazol-3-yl]-3-fluoro-2-pyridyl]-1-methyl-1,4,9-triazaspiro[5.5]undecan-5-one]	1 to 20	1 to 20	1 to 20	1 to 20	1 to 20	–	1 to 20	20 to 100
C[C@@H](Oc1ccc2[nH]nc(-c3cnc(N4CCC5(CC4)CNC(=O)N5)nc3)c2c1)c1c(Cl)cncc1Cl [Example 53, 8-[5-[5-[(1R)-1-(3,5-dichloro-4-pyridyl)ethoxy]-1H-indazol-3-yl]pyrimidin-2-yl]-1,3,8-triazaspiro-[4.5]decan-2-one]	20 to 100	1 to 20	1 to 20	20 to 100	1 to 20	11	20 to 100	100 to 300
C[C@@H](Oc1ccc2[nH]nc(-c3cnc(N4CCC5(CCNC5=O)CC4)nc3)c2c1)c1c(Cl)cncc1Cl [Example 55, 8-[5-[5-[(1R)-1-(3,5-dichloro-4-pyridyl)ethoxy]-1H-indazol-3-yl]pyrimidin-2-yl]-2,8-diazaspiro-[4.5]decan-1-one]	20 to 100	1 to 20	1 to 20	20 to 100	1 to 20	16	20 to 100	> 300
C[C@@H](Oc1ccc2[nH]nc(-c3cnc(N4CCC5(CCCN5)CC4)nc3)c2c1)c1c(Cl)cncc1Cl [Example 56, 8-[5-[5-[(1R)-1-(3,5-dichloro-4-pyridyl)ethoxy]-1H-indazol-3-yl]pyrimidin-2-yl]-1,8-diazaspiro[4.5]decane]	20 to 100	1 to 20	1 to 20	1 to 20	1 to 20	5	20 to 100	> 300
C[C@@H](Oc1ccc2[nH]nc(-c3cnc(N4CCC5(CC4)CCS(=O)(=O)C5)nc3)c2c1)c1c(Cl)cncc1Cl [Example 57, 8-[5-[5-[(1R)-1-(3,5-dichloro-4-pyridyl)ethoxy]-1H-indazol-3-yl]pyrimidin-2-yl]-2λ^6-thia-8-azaspiro[4.5]decane 2,2-dioxide]	20 to 100	1 to 20	1 to 20	20 to 100	1 to 20	15	1 to 20	100 to 300
C[C@@H](Oc1ccc2[nH]nc(-c3cnc(N4CCC5(CC4)C(=O)NCCN5C)nc3)c2c1)c1c(Cl)cncc1Cl [Example 58, 9-[5-[5-[(1R)-1-(3,5-dichloro-4-pyridyl)ethoxy]-1H-indazol-3-yl]pyrimidin-2-yl]-1-methyl-1,4,9-triazaspiro[5.5]undecan-5-one]	20 to 100	1 to 20	1 to 20	20 to 100	1 to 20	11	20 to 100	100 to 300
C[C@@H](Oc1ccc2[nH]nc(-c3cnc(N4CCCN(C(N)=O)CC4)nc3)c2c1)c1c(Cl)cncc1Cl [Example 62, 4-[5-[5-[(1R)-1-(3,5-Dichloro-4-pyridyl)ethoxy]-1H-indazol-3-yl]pyrimidin-2-yl]-1,4-diazepane-1-carboxamide]	20 to 100	1 to 20	1 to 20	20 to 100	1 to 20	8	20 to 100	> 300
C[C@@H](Oc1ccc2[nH]nc(-c3cnc(N4CCCN(S(C)(=O)=O)CC4)nc3)c2c1)c1c(Cl)cncc1Cl [Example 63, 5-[(1R)-1-(3,5-Dichloro-4-pyridyl)ethoxy]-3-[2-(4-methylsulfonyl-1,4-diazepan-1-yl)pyrimidin-5-yl]-1H-indazole]	20 to 100	1 to 20	1 to 20	20 to 100	1 to 20	16	20 to 100	> 300
C[C@@H](Oc1ccc2[nH]nc(-c3cnn(C4CCNCC4)c3)c2c1)c1c(Cl)cncc1Cl [Example 64, 5-[(1R)-1-(3,5-dichloro-4-pyridyl)ethoxy]-3-[1-(4-piperidyl)pyrazol-4-yl]-1H-indazole]	1 to 20	1 to 20	1 to 20	1 to 20	1 to 20	16	1 to 20	100 to 300
C[C@@H](Oc1ccc2[nH]nc(-c3cnn(C4CCN(C(=O)N(C)C)CC4)c3)c2c1)c1c(Cl)cncc1Cl [Example 67, 4-[4-[5-[(1R)-1-(3,5-dichloro-4-pyridyl)ethoxy]-1H-indazol-3-yl]pyrazol-1-yl]-N,N-dimethyl-piperidine-1-carboxamide]	1 to 20	1 to 20	1 to 20	1 to 20	1 to 20	12	1 to 20	20 to 100
C[C@@H](Oc1ccc2[nH]nc(-c3cnn(C4CCN(C(N)=O)CC4)c3)c2c1)c1c(Cl)cncc1Cl [Example 68, 4-[4-[5-[(1R)-1-(3,5-dichloro-4-pyridyl)ethoxy]-1H-indazol-3-yl]pyrazol-1-yl]piperidine-1-carboxamide]	1 to 20	1 to 20	1 to 20	1 to 20	1 to 20	–	1 to 20	100 to 300
